Experimental findings from article PMC8540097, “Novel Oleanolic Acid-Tryptamine and -Fluorotryptamine Amides: From Adaptogens to Agents Targeting In Vitro Cell Apoptosis” (Plants, 2021) are described below.

Series [1] deals with MCF7 (breast carcinoma). The experiment in a line: Cytotoxicity screening test, MCF7 cells (resazurin, 72 h). Format: cell-based, human. The method, then: (§1) The screening human cancer cell lines used in this investigation were CEM (T-lymphoblastic leukemia), MCF7 (breast carcinoma), HeLa (cervical carcinoma) and G-361 (malignant melanoma) from the European Collection of Authenticated Cell Cultures (Salisbury, UK). Human foreskin fibroblasts (BJ) were used as reference cells, and they were a kind gift from Prof. Bartek from Danish Cancer Society Center (Copenhagen, Denmark). Cells were cultured in DMEM (Dulbecco’s Modified Eagle Medium) or in RPMI 1640 medium (CEM). Media used were supplemented with 10% fetal or 20% (CEM) bovine serum, L-glutamine (2 mM), and 1% penicillin-streptomycin mixture (all from Sigma, MO, USA). The cell lines were maintained under standard cell culture conditions at 37 °C and 5% CO2 in a humid environment. Cells were subcultured twice or three times a week using the standard trypsinization procedure. A description of the experimental procedure used in the cytotoxicity screening tests was already published. The cell viability was measured after 72 h using resazurin (Sigma, St. Louis, MO, USA).
(In general: Resazurin is reduced to fluorescent resorufin, in cell work by metabolically active cells.)

For series [2], the system named is HeLa (cervical carcinoma). The experiment in a line: Cytotoxicity screening test, HeLa cells (resazurin, 72 h). Format: cell-based, human. The method, then: as §1
Series [3] relates to G-361 (malignant melanoma). Briefly: Cytotoxicity screening test, G-361 cells (resazurin, 72 h). Format: cell-based, human. The method, then: as §1
For series [4], the system named is CEM (T-lymphoblastic leukemia). The experiment in a line: Cytotoxicity screening test, CEM cells (resazurin, 72 h). Format: cell-based. To be noted: Homo sapiens, CCRF-CEM. Here is the method:
as §1

Series [5] is described as follows: Cytotoxicity screening test, BJ reference fibroblasts (resazurin, 72 h). To be noted: human, BJ foreskin fibroblasts (normal reference cells). Format: cell-based. Here is the method:
as §1

Series [6] relates to caspase-3/7 in HeLa cells. Briefly: Activity of caspase-3/7 in HeLa cells. Format: cell-based, human. To be noted: 24 h, c = 30 µM, versus control. The method, then:
(§2) A flow cytometric analysis, SDS–polyacrylamide gel electrophoresis and immunoblotting, and activities of caspase-3/7 were used to detect apoptosis in cervical carcinoma cells (HeLa) and malignant melanoma cells (G-361) treated for 24 h with 3a–3c (c = 3, 10 and 30 µM). The DNA content of HeLa or G-361 treated with 3a–3c for 24 h were analyzed using flow cytometry. Cells (HeLa and G-361), treated with the same concentrations of compounds for 24 h, were analyzed using electrophoresis and Western blotting, and the activity of caspase-3/7 by the standard methods. All experimental details of these methods were described in our recent paper.
Figure 3 Activity of caspase-3/7. Activity of caspase-3/7 after 24 h treatment with 3a–3c (3, 10 and 30 µM) in HeLa cells. The bars 0 are control untreated cells, the bars 0+ are control cells with DMSO. The experiment was repeated at least twice in duplicates. All data were analyzed by statistical software. Significance is indicated with an asterisk (*) (p ˂ 0.05).

Series [7] concerns malignant melanoma cells (G-361). Briefly: Flow cytometric analysis of cell cycle and apoptosis, G-361 cells. Format: cell-based, human. The settings on record: G-361, 24 h. Here is the method:
as §2
3. Apoptosis in human cancer cells.
A detailed description of investigation of apoptosis in the HeLa and G-361 cancer cells is given in the main text of this paper. Because the results achieved with the G-361 cancer cells appeared to be less pronounced than those achieved with the HeLa cells, Figures S1A, S1B, S2 and S3 showing the results with G-361 cells are presented in the Supplementary material.
Figure S1A and S1B. Flow cytometric analysis of cell cycle (A) and apoptosis (B) of human malignant melanoma cells (G-361) after 24 h with 3a–3c (3, 10 and 30 µM). The bars 0 means control untreated cells, the bars 0+ means control with DMSO. Error bars are omitted for graph clarity. Experiment was repeated at least twice in duplicates.
Figure S1A. Flow cytometric analysis of cell cycle of G-361 cancer cells.
(1 picture or pasted object on this page, not shown here)
(In general: A flow cytometer gives signals particle by particle.)

For series [8], the system named is cervical carcinoma cells (HeLa). The experiment in a line: Flow cytometric analysis of cell cycle and apoptosis, HeLa cells. Format: cell-based, human. To be noted: 24 h. Here is the method: as §2
Figure 1 Flow cytometric analysis of cell cycle of HeLa cancer cells (A) and apoptosis (B). Flow cytometric analysis of cell cycle (A) and apoptosis (B) of human cervical carcinoma cells (HeLa) after 24 h with 3a–3c (3, 10 and 30 µM). The bars 0 means control untreated cells, the bars 0+ means control with DMSO. The experiment was repeated at least twice in triplicates. All data were analyzed by statistical software. Significance is indicated with an asterisk (*) (p ˂ 0.05).

The mark [9] stands for this setting: Homo sapiens, MCF7, 72 h, resazurin, read-out: Cytotoxicity IC50, MCF7.
Setting [10] is: Homo sapiens, HeLa, resazurin, read-out: Cytotoxicity IC50, HeLa.
[11] abbreviates: individual runs, Table S1, read-out: Cytotoxicity IC50, HeLa, single repeated screening runs (italics).
Where [12] appears, read: Homo sapiens, G-361, 72 h, resazurin, read-out: Cytotoxicity IC50, G-361.
The mark [13] stands for this setting: individual runs, Table S1, read-out: Cytotoxicity IC50, G361, single repeated screening runs (italics).
Setting [14] is: individual runs, Table S1, read-out: Cytotoxicity IC50, MCF7, single repeated screening runs (italics).
Where [15] appears, read: Homo sapiens, HeLa, individual runs, Table S1, read-out: Cytotoxicity IC50, HeLa, single repeated screening runs (italics).
Setting [16] is: Homo sapiens, MCF7, resazurin, read-out: Cytotoxicity IC50, MCF7.
The mark [17] stands for this setting: Homo sapiens, G-361, resazurin, read-out: Cytotoxicity IC50, G-361.

Several values for one entry are separate records, joined by “and”; a condition that tells them apart may be missing. Identical values can stand only once. Like-named read-outs stand apart in the source and are kept apart here.

The term IC50 denotes the point on the concentration scale where inhibition reaches its midpoint. `CC1(C)CCC2(C(=O)NCCc3c[nH]c4ccccc34)CCC3(C)C(=CCC4C5(C)CCC(O)C(C)(C)C5CCC43C)C2C1` (stereo not drawn) [Compound 4a]: the half-inhibitory concentration (IC50) is over 50 µM in series [1] (setting [9]); over 50 µM in series [2] (setting [10]); 20.4 µM and > 50 µM (2×) in [2] (setting [11]); over 50 µM in series [3] (setting [12]); > 50 µM (2×) and 19.7 µM in [3] (setting [13]); over 50 µM in series [4]. In [5], this compound registered a half-maximal inhibitory concentration (IC50) at 72 h of over 50 µM.
The term melting point denotes the temperature, or range, at which the solid turns liquid. The compound `CC1(C)CCC2(C(=O)NCCc3c[nH]c4ccc(F)cc34)CCC3(C)C(=CCC4C5(C)CCC(O)C(C)(C)C5CCC43C)C2C1` (stereo not drawn) [Compound 4c] registered a melting point of 147 to 148 °C. For the same compound, the IC50 in [1] (setting [9]) was 13.5 ± 3.3 µM. In [1] (setting [14]), the IC50 was 31.8 µM and > 50 µM and 11.2 µM and 15.8 µM. Moreover, the IC50 in series [2] (setting [15]) was found to be 14.9 µM. Also, the IC50 in [2] (setting [10]) was 20.3 ± 7.6 µM. In addition, the IC50 in series [2] (setting [11]) is 29 µM and 17.1 µM. Moreover, in [3] (setting [12]), the IC50 is over 50 µM. Moreover, the IC50 in series [4] was over 50 µM. In series [5], this compound gave a concentration for half-maximal inhibition (IC50) at 72 h of over 50 µM.
For the compound `CC(=O)O[C@H]1CC[C@]2(C)[C@H]3CC=C4[C@@H]5CC(C)(C)CC[C@]5(C(=O)NCCc5c[nH]c6ccccc56)CC[C@@]4(C)[C@]3(C)CC[C@H]2C1(C)C` [Compound 3a, Tryptamine amide of (3β)-3-(acetyloxy)olean-12-en-28-oic acid], the IC50 in series [1] (setting [9]) was over 50 µM; in series [2] (setting [15]) it was 8.4 µM; in series [2] (setting [10]), 8.7 ± 0.4 µM; in [2] (setting [11]), 9 µM; in series [3] (Homo sapiens, G-361, 72 h, individual runs, Table S1, read-out: Cytotoxicity IC50, G361, single repeated screening runs (italics)) it was 8.7 µM; in series [3] (setting [12]) it was 9 ± 0.4 µM. Besides, the IC50 in [3] (setting [13]) is 9.2 µM; in series [4], over 50 µM. For the same compound, in series [5], the IC50 at 72 h was over 50 µM. Further, in series [6], the “Induction of caspase-3/7 activity” value is given as “up to 4 times”. The “Level of apoptotic cells in subG1 phase” value in series [7] is listed as “up to 7.7%”. Besides, the “Effect on cell cycle” value in series [7] (c = 10 µM) is “increase of accumulation of the S-phase cells”; in series [8] (c = 30 µM) it was “cell cycle arrest in the G2/M phase”. Also, in series [8] (c = 30 µM), the “Induction of apoptosis (apoptotic cells)” value was 4%.
`CC1(C)CC[C@]2(C(=O)O)CC[C@]3(C)C(=CC[C@@H]4[C@@]5(C)CC[C@H](O)C(C)(C)[C@@H]5CC[C@]43C)[C@@H]2C1` [Compound 1, (3β)-3-hydroxyolean-12-en-28-oic acid, reference compound]: the IC50 in series [1] (setting [9]), in [2] (setting [10]), in [3] (setting [12]) and in [4] was over 50 µM throughout. Also, the IC50 at 72 h in series [5] was over 50 µM.
Take `CC(=O)O[C@H]1CC[C@]2(C)[C@H]3CC=C4[C@@H]5CC(C)(C)CC[C@]5(C(=O)O)CC[C@@]4(C)[C@]3(C)CC[C@H]2C1(C)C` [Compound 2, (3β)-3-(acetyloxy)olean-12-en-28-oic acid]: the half-inhibitory concentration (IC50) in series [1] (setting [16]), in series [2] (setting [10]), in [3] (setting [17]) and in [4] was over 50 µM each time. Also, the half-inhibitory concentration (IC50) at 72 h in [5] is over 50 µM.
Consider `CC(=O)O[C@H]1CC[C@]2(C)[C@H]3CC=C4[C@@H]5CC(C)(C)CC[C@]5(C(=O)NCCc5c[nH]c6cc(F)ccc56)CC[C@@]4(C)[C@]3(C)CC[C@H]2C1(C)C` [Compound 3b], for which the melting point fell in the range of 139 to 140 °C. For the same compound, in series [1] (setting [9]), the 50% inhibitory concentration (IC50) was over 50 µM. Moreover, the half-inhibitory concentration (IC50) in series [2] (setting [10]) turned out to be 6.7 ± 1.4 µM. Also, in series [2] (setting [11]), the IC50 is 7.7 µM and 13.1 µM and 5.7 µM. Moreover, in [3] (setting [12]), the IC50 turned out to be 15.9 ± 6.6 µM. Moreover, in series [3] (setting [13]), the 50% inhibitory concentration (IC50) was > 50 µM and 23 µM and 9.9 µM and 14.9 µM. The compound further displayed a half-maximal inhibitory concentration (IC50) in series [4] of over 50 µM. The IC50 at 72 h in series [5] is over 50 µM. In addition, the “Induction of caspase-3/7 activity” value in [6] is “up to 4.6 times”. Further, in [7], the “Level of apoptotic cells in subG1 phase” value is reported as “increased the level of apoptotic cells”. In addition, in series [7] (c = 10 µM), the “Effect on cell cycle” value is on record as “increase of accumulation of the S-phase cells”. Also, the “Induction of apoptosis (apoptotic cells)” value in [8] (c = 10 µM) is on record as “up to 6.4%”. Moreover, the “Effect on cell cycle” value in [8] (c = 30 µM) is recorded as “increased the number of cells in the G2/M phase”.
`NCCc1c[nH]c2ccccc12` [tryptamine]: the concentration for half-maximal inhibition (IC50) in series [1] (setting [16]), in series [2] (setting [10]), in series [3] (setting [17]) and in [4] was over 50 µM throughout. Further, the IC50 at 72 h in series [5] is over 50 µM.
With `CC(=O)O[C@H]1CC[C@]2(C)[C@H]3CC=C4[C@@H]5CC(C)(C)CC[C@]5(C(=O)NCCc5c[nH]c6ccc(F)cc56)CC[C@@]4(C)[C@]3(C)CC[C@H]2C1(C)C` [Compound 3c], the melting point lay in the range of 138 to 139 °C. In addition, in [1] (setting [9]), the IC50 was over 50 µM. The IC50 in [2] (setting [10]) is 12.2 ± 4.7 µM. The IC50 in series [2] (setting [11]) was 10.4 µM and 17.6 µM and 8.7 µM. Moreover, the IC50 in series [3] (setting [12]) is over 50 µM. In series [4], this compound showed a half-maximal inhibitory concentration (IC50) of over 50 µM. The IC50 at 72 h in [5] is over 50 µM. Further, the “Effect on cell cycle” value in series [7] (c = 3 µM) is reported as “increase of accumulation of the S-phase cells”. Further, in [8] (c = 30 µM), the “Effect on cell cycle” value was “increased the number of cells in the G2/M phase” and the “Induction of apoptosis (apoptotic cells)” value was determined as 2.7%.
In turn, `CC1(C)CCC2(C(=O)NCCc3c[nH]c4cc(F)ccc34)CCC3(C)C(=CCC4C5(C)CCC(O)C(C)(C)C5CCC43C)C2C1` (stereo not drawn) [Compound 4b] displayed a melting point of 149 to 150 °C. For the same compound, the IC50 in series [1] (Homo sapiens, MCF7, 72 h, individual runs, Table S1, read-out: Cytotoxicity IC50, MCF7, single repeated screening runs (italics)) came to 44.5 µM. Further, the half-maximal inhibitory concentration (IC50) in [1] (setting [9]) is over 50 µM. Besides, the IC50 in [1] (setting [14]) is over 50 µM. For the same compound, the 50% inhibitory concentration (IC50) in [2] (setting [15]) came out at 27.3 µM. Also, in [2] (setting [10]), the IC50 stood at 27.9 ± 0.8 µM. Moreover, the 50% inhibitory concentration (IC50) in series [2] (setting [11]) was 28.5 µM and > 50 µM. The 50% inhibitory concentration (IC50) in series [3] (setting [12]) was over 50 µM. The compound further yielded a concentration for half-maximal inhibition (IC50) in [4] of over 50 µM. Also, in series [5], the IC50 at 72 h was over 50 µM.
